The values that follow are results of earlier work, collected in patent US20230210792A1, “USE OF A COMBINATION OF […] A CXCR-2 INHIBITORS FOR THE TREATMENT OR PREVENTION OF FAMILIAL MEDITERRANEAN FEVER (FMF) AND FLARE-UPS THEREOF” (ARISTEA THERAPEUTICS, INC., priority 2020, published 2023).

In the case of `COc1cc2c(c(OC)c1OC)-c1ccc(OC)c(=O)cc1[C@@H](NC(C)=O)CC2` [Colchicine], where the note is “absorbed from the gastrointestinal tract”, the “Peak concentrations occur in (time to peak)” value is 0.5 to 2 h. Moreover, the “eliminated unchanged in the urine” value (metabolized in the liver, excreted primarily in the feces) is reported as 10-20%.
